For test [1], the system named is B16 melanoma tumor cells expressing the cOVA transgene. Also on record: species or system C57/B1 mice. Conditions: mouse, in vivo.
Test [2] deals with B. anthracis. Also noted: species or system A/J mice. Conditions: mouse, in vivo.
Details of test [3]: species or system C57BL/6 mice. Conditions: mouse, in vivo.
Details of test [4]: species or system C57BL/6 mice. Conditions: mouse, in vivo, iv.
The target in test [5] is T1, TLR7 (Homo sapiens, UniProt Q9NYK1).
T1 construct: expressed in transfected cells
T1 sequence (Q9NYK1 27-1049): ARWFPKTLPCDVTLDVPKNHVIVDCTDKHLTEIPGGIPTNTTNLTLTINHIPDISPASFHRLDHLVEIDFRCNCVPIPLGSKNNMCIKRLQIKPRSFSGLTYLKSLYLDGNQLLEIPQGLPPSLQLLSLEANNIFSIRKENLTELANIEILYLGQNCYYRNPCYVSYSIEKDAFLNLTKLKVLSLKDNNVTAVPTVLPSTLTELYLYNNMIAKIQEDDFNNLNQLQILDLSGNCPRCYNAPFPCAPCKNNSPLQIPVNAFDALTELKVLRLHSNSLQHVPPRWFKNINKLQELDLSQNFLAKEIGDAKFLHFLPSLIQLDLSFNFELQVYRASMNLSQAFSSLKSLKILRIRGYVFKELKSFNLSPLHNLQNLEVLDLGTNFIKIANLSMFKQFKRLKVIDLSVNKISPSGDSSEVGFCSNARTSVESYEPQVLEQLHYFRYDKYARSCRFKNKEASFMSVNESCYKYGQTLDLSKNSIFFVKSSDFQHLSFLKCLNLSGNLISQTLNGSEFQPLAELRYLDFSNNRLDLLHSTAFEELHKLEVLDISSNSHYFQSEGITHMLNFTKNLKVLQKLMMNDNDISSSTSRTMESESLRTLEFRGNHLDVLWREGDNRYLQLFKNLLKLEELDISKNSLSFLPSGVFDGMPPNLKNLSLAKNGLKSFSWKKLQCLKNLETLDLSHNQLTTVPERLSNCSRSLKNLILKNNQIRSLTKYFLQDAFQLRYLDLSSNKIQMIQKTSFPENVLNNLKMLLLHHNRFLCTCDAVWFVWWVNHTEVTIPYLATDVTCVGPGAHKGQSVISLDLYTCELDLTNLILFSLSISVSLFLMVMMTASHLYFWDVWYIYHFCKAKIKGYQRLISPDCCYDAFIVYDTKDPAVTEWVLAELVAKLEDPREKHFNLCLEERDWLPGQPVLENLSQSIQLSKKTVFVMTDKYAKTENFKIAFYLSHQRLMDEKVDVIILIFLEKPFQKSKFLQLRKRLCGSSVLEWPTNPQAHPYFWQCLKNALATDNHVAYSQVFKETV
Briefly: TLR transformants, TLR7 agonist specificity and potency. The format is cell-based.

Test [6] relates to bone-marrow-derived macrophages (BMDM). The format is cell-based, mouse. Conditions: 24 hours incubation.
Test [7] concerns anthrax infection. Conditions: in vivo.

Entries after “also recorded” stand apart in the source; their conditions may differ.

Take “chicken ovalbumin: antigen alone, comparator”: the median survival in test [1] was 22 days.
As to `COCCOc1nc(N)c2nc(O)n(Cc3ccc(C=O)cc3)c2n1` [UC-1V150, 4-[6-amino-8-hydroxy-2-(2-methoxyethoxy)purin-9-ylmethyl]benzaldehyde], in test [2], the “effect on survival / protection” value is listed as “no significant difference; also recorded: failed to protect”. For the same compound, in test [3], the “cytokine production in the BALF” value is recorded as “induced selective cytokine production”. The “time of peak serum cytokine levels” value in test [4] is “about 2 hours”. Besides, the TLR specificity entry in test [5] is recorded as “specific TLR7 agonist”. In test [6], the “cytokine release / activation of BMDM” value is reported as “stimulated cytokine release; also recorded: active at nanomolar concentrations”.
Take `O=C(O)c1cn(C2CC2)c2cc(N3CCNCC3)c(F)cc2c1=O` [ciprofloxacin]: the survival in test [7] is reported as 15-25%.

The values are drawn from patent US9050376B2 (priority 2007, dated 2015).
